Values of other authors, collected in patent EP4241780A1, “ENRICHED POLYPHENOLIC FRACTIONS OF ARONIA EXTRACTS AND USES THEREOF” (Diana, priority 2022, dated 2023).

Test system: HepG2 cells
Conditions: 100% pure compounds, reference [31], Figure 4

| EC50 intracellular antioxidant activity of pure compounds [µg/mL] | SMILES |
| --- | --- |
| 7 | O=c1c(O)c(-c2ccc(O)c(O)c2)oc2cc(O)cc(O)c12 [quercetin] |
| 14.8 | Oc1ccc(C=Cc2cc(O)cc(O)c2)cc1 [resveratrol] |
